Legend:
[1] = system: G-quadruplex oligonucleotide Fmyc27T (NHE III1 promoter region of c-myc oncogene); assay: FRET melting of G-quadruplex oligonucleotide Fmyc27T with ligands; assay type: binding; conditions: for ΔTm (° C.) Fmyc27T/ds26 (° C.): helquat 1 μmol·l^−1, oligonucleotide 0.2 μmol·l^−1, 50-fold excess of double-stranded competitor ds26; for ΔTm (° C.) Fmyc27T: helquat 1 μmol·l^−1, oligonucleotide 0.2 μmol·l^−1, without competitor
c-myc protein = assay: Immunodetection of protein c-myc in HGC-27 cell lysates (Western blot); assay type: cell-based, human; conditions: 50 μmol · l^−1, 24 hour incubation, normalized to β-actin
Method in brief: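 HGC-27 cells seeded at 25,000 cells/cm^2, treated next day with 50 μmol·l^−1 helquat for 24 h. RIPA lysates separated by 12% SDS-PAGE, blotted and probed for c-myc with β-actin loading control; chemiluminescence densitometry, c-myc normalized to β-actin and expressed relative to untreated control.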

SMILES	ΔTm (° C.) Fmyc27T/ds26 (° C.) [1]	ΔTm (° C.) Fmyc27T [1]	c-myc protein expression relative to control (control = 100%) (c-myc protein)
Cc1c(C)c2c(c3c1CC[n+]1ccc(/C=C/c4cccc5c4oc4ccccc45)cc1-3)-c1c3ccccc3cc[n+]1CC2 (racemic) [MJA-C13-8, (rac)-(E)-13-(2-(dibenzo[b,d]furan-4-yl)vinyl)-6,7-dimethyl-4,5,8,9-tetrahydroisoquinolino[1,2-a]pyrido[1,2-k][2,9]phenanthroline-3,10-diium trifluoromethanesulfonate]	4.9 °C	11.0 °C	58%
O=[N+]([O-])c1cccc2[nH]cc(/C=C/c3cc[n+]4c(c3)-c3c(ccc5c3-c3cccc[n+]3CC5)CC4)c12 (racemic) [LSA-C9-32, (rac)-(E)-2-(2-(4-nitro-1H-indol-3-yl)vinyl)-6,7,10,11-tetrahydrodipyrido[2,1-a:1′,2′-k][2,9]phenanthroline-5,12-diium trifluoromethanesulfonate]	8.1 °C	10.4 °C	
C(=C\c1c(-c2ccccc2)[nH]c2ccccc12)/c1cc2ccccc2[n+]2c1-c1c(ccc3c1-c1cccc[n+]1CCC3)CCC2.O=S(=O)([O-])C(F)(F)F.O=S(=O)([O-])C(F)(F)F [MSC-C15-8, 19-((E)-2-(2-phenyl-1H-indol-3-yl)vinyl)-6,7,8,11,12,13-hexahydropyrido[1′″,2′″:1″,2″]azepino[4″,3″:5′,6′]benzo[1′,2′:3,4]azepino[1,2-a]quinoline-5,14-diium trifluoromethanesulfonate]			58%
C(=C\c1cccc2c1oc1ccccc12)/c1cc[n+]2c(c1)-c1c(ccc3c1-c1c4ccccc4cc[n+]1CC3)CC2.O=S(=O)([O-])C(F)(F)F.O=S(=O)([O-])C(F)(F)F [MSB-C13-8, (E)-13-(2-(dibenzo[b,d]furan-4-yl)vinyl)-4,5,8,9-tetrahydroisoquinolino[1,2-a]pyrido[1,2-k][2,9]phenanthroline-3,10-diium trifluoromethanesulfonate]	7.7 °C	12.6 °C	
Brc1ccc2[nH]cc(/C=C/c3cc4ccccc4[n+]4c3-c3c(ccc5c3-c3cccc[n+]3CCC5)CCC4)c2c1.O=S(=O)([O-])C(F)(F)F.O=S(=O)([O-])C(F)(F)F [MSC-C9-30, 19-((E)-2-(5-bromo-1H-indol-3-yl)vinyl)-6,7,8,11,12,13-hexahydropyrido[1′″,2′″:1″,2″]azepino[4″,3″:5′,6′]benzo[1′,2′:3,4]azepino[1,2-a]quinoline-5,14-diium trifluoromethanesulfonate]			14%
